Experimental data as given in patent US8192962B2, “Processes for detecting toxic substances” (Daikin Industries, Ltd., priority 2001, dated 2012).

Columns and labels:
[1] = system: DNA repair protein genes; test: DNA chip mRNA expression in yeast, DNA repair protein genes (Table 3); assay type: cell-based, Saccharomyces cerevisiae S288C; settings: incubated two hours, concentrations as in the 1st table
Procedure: (§1) Yeast (Saccharomyces cerevisiae S288C (α SUC2mal mel gap2 CUP1)) were incubated at 25° C. on YPD medium (yeast extract 1%, polypepton 2%, glucose 2%). One of toxic chemical substances was added to the cells at logarithmic growth phase, and the cells were further incubated for two hours. Cells were cultured without any chemical substance in the same condition, and were used as control. Concentrations of the chemical substances were defined to inhibit the growth of the yeast but not lead to death.
(§2) After completion of the incubation, the culture was centrifuged to collect the cells. To the cells, sodium acetate buffer (50 mM sodium acetate, 10 mM EDTA, 1% SDS) was added, and the mixture was shaken at 65° C. for five minutes, followed by returning to room temperature, and obtaining the supernatant, of which the procedures were repeated two times. To the supernatant, ½ amount of a solution of phenol/chloroform was added, and the mixture was centrifuged to give a supernatant, which was added with an equal amount of chloroform, and the mixture was centrifuged to give a supernatant. To the supernatant, an equal amount of isopropanol containing 0.3 M sodium acetate was added, and the mixture was allowed to stand at room temperature for 30 minutes, after which the mixture was centrifuged to give a sediment of the whole RNAs. Seventy % ethanol was added to the sediment, and the mixture was again centrifuged to give a sediment, which was then dried and dissolved in water. mRNA was isolated from the whole RNAs as followings. In view of the fact that a poly A chain is attached to the 3′ terminus of mRNA, a polynucleotide having a poly T structure which was immobilized on the surface of latex beads was used to trap the mRNA, and then the mRNA was washed and eluted with spine column (Oligotex-dT30<Super>mRNA Purification Kit, Takara). Reverse transcription of the mRNA was conducted with a reverse transcriptase (Super Script II Reverse Transcriptase; catalogue No. 18064-014, GibcoBRL) using fluorescence-labeled nucleotides to give cDNAs that were introduced with Cy3-dUTP or Cy5-dUTP during the reverse transcription.
(§3) The labeled cDNAs were dissolved in TE buffer (10mM Tris-HCl/1 mM EDTA, pH8.0), and the solution was dropped on the DNA chip containing the whole genes of yeast (DNA Chip Research Inc. Japan) so that the cDNAs were hybridized on the DNA chip at 65° C. for over 12 hours. The fluoresces intensity of the DNA chip was read with a scanner, and the ratio relative to the fluorescence intensity resulting from the absence of chemical substance was estimated as the following, which is shown in Tables 1 to 9: […]

[2] = system: Detoxification protein genes; test: DNA chip mRNA expression in yeast, detoxification protein genes (Table 8); assay type: cell-based, Saccharomyces cerevisiae S288C
Procedure: as §1, §2, §3

CCCCCCCCCCCCc1ccc(S(=O)(=O)[O-])cc1.[Na+] [(17), sodium dodecylbenzosulfonate]
The level of expressed mRNA in the presence of chemical substance/The level of expressed mRNA in the absence of chemical substance ([1]; yeast gene YAL015C): 1.1 | The level of expressed mRNA in the presence of chemical substance/The level of expressed mRNA in the absence of chemical substance ([1]; yeast gene YAR007C): 0.8 | The level of expressed mRNA in the presence of chemical substance/The level of expressed mRNA in the absence of chemical substance ([1]; yeast gene YBL019W): 0.8 | The level of expressed mRNA in the presence of chemical substance/The level of expressed mRNA in the absence of chemical substance ([1]; yeast gene YBR073W): 0.7 | The level of expressed mRNA in the presence of chemical substance/The level of expressed mRNA in the absence of chemical substance ([1]; yeast gene YBR272C): 1.1 | The level of expressed mRNA in the presence of chemical substance/The level of expressed mRNA in the absence of chemical substance ([1]; yeast gene YCR014C): 1.0 | The level of expressed mRNA in the presence of chemical substance/The level of expressed mRNA in the absence of chemical substance ([1]; yeast gene YDL017W): 0.8 | The level of expressed mRNA in the presence of chemical substance/The level of expressed mRNA in the absence of chemical substance ([1]; yeast gene YDL059C): 0.8 | The level of expressed mRNA in the presence of chemical substance/The level of expressed mRNA in the absence of chemical substance ([1]; yeast gene YDL200C): 0.9 | The level of expressed mRNA in the presence of chemical substance/The level of expressed mRNA in the absence of chemical substance ([1]; yeast gene YDR054C): 0.8 | The level of expressed mRNA in the presence of chemical substance/The level of expressed mRNA in the absence of chemical substance ([1]; yeast gene YDR369C): 0.8 | The level of expressed mRNA in the presence of chemical substance/The level of expressed mRNA in the absence of chemical substance ([1]; yeast gene YEL019C): 0.8 | The level of expressed mRNA in the presence of chemical substance/The level of expressed mRNA in the absence of chemical substance ([1]; yeast gene YEL037C): 1.0 | The level of expressed mRNA in the presence of chemical substance/The level of expressed mRNA in the absence of chemical substance ([1]; yeast gene YER162C): 1.2 | The level of expressed mRNA in the presence of chemical substance/The level of expressed mRNA in the absence of chemical substance ([1]; yeast gene YFL014W): 1.5 | The level of expressed mRNA in the presence of chemical substance/The level of expressed mRNA in the absence of chemical substance ([1]; yeast gene YGL058W): 1.1 | The level of expressed mRNA in the presence of chemical substance/The level of expressed mRNA in the absence of chemical substance ([1]; yeast gene YGL091C): 1.4 | The level of expressed mRNA in the presence of chemical substance/The level of expressed mRNA in the absence of chemical substance ([1]; yeast gene YGL127C): 1.0 | The level of expressed mRNA in the presence of chemical substance/The level of expressed mRNA in the absence of chemical substance ([1]; yeast gene YGL163C): 0.9 | The level of expressed mRNA in the presence of chemical substance/The level of expressed mRNA in the absence of chemical substance ([1]; yeast gene YGL249W): 1.0 | The level of expressed mRNA in the presence of chemical substance/The level of expressed mRNA in the absence of chemical substance ([1]; yeast gene YGR180C): 1.0 | The level of expressed mRNA in the presence of chemical substance/The level of expressed mRNA in the absence of chemical substance ([1]; yeast gene YGR231C): 1.0 | The level of expressed mRNA in the presence of chemical substance/The level of expressed mRNA in the absence of chemical substance ([1]; yeast gene YGR258C): 1.0 | The level of expressed mRNA in the presence of chemical substance/The level of expressed mRNA in the absence of chemical substance ([1]; yeast gene YHR164C): 0.8 | The level of expressed mRNA in the presence of chemical substance/The level of expressed mRNA in the absence of chemical substance ([1]; yeast gene YIL036W): 1.1 | The level of expressed mRNA in the presence of chemical substance/The level of expressed mRNA in the absence of chemical substance ([1]; yeast gene YIL072W): 1.0 | The level of expressed mRNA in the presence of chemical substance/The level of expressed mRNA in the absence of chemical substance ([1]; yeast gene YIL143C): 0.9 | The level of expressed mRNA in the presence of chemical substance/The level of expressed mRNA in the absence of chemical substance ([1]; yeast gene YIL153W): 0.9 | The level of expressed mRNA in the presence of chemical substance/The level of expressed mRNA in the absence of chemical substance ([1]; yeast gene YIR002C): 1.1 | The level of expressed mRNA in the presence of chemical substance/The level of expressed mRNA in the absence of chemical substance ([1]; yeast gene YJL026W): 1.4 | The level of expressed mRNA in the presence of chemical substance/The level of expressed mRNA in the absence of chemical substance ([1]; yeast gene YJR046W): 0.7 | The level of expressed mRNA in the presence of chemical substance/The level of expressed mRNA in the absence of chemical substance ([1]; yeast gene YJR052W): 1.0 | The level of expressed mRNA in the presence of chemical substance/The level of expressed mRNA in the absence of chemical substance ([1]; yeast gene YKL145W): 1.1 | The level of expressed mRNA in the presence of chemical substance/The level of expressed mRNA in the absence of chemical substance ([1]; yeast gene YLR103C): 1.1 | The level of expressed mRNA in the presence of chemical substance/The level of expressed mRNA in the absence of chemical substance ([1]; yeast gene YLR233C): 1.0 | The level of expressed mRNA in the presence of chemical substance/The level of expressed mRNA in the absence of chemical substance ([1]; yeast gene YLR288C): 1.2 | The level of expressed mRNA in the presence of chemical substance/The level of expressed mRNA in the absence of chemical substance ([1]; yeast gene YML032C): 1.0 | The level of expressed mRNA in the presence of chemical substance/The level of expressed mRNA in the absence of chemical substance ([1]; yeast gene YML058W): 1.3 | The level of expressed mRNA in the presence of chemical substance/The level of expressed mRNA in the absence of chemical substance ([1]; yeast gene YMR035W): 2.2 | The level of expressed mRNA in the presence of chemical substance/The level of expressed mRNA in the absence of chemical substance ([1]; yeast gene YMR072W): 0.9 | The level of expressed mRNA in the presence of chemical substance/The level of expressed mRNA in the absence of chemical substance ([1]; yeast gene YMR096W): 2.2 | The level of expressed mRNA in the presence of chemical substance/The level of expressed mRNA in the absence of chemical substance ([1]; yeast gene YMR284W): 1.1 | The level of expressed mRNA in the presence of chemical substance/The level of expressed mRNA in the absence of chemical substance ([1]; yeast gene YNL213C): 0.9 | The level of expressed mRNA in the presence of chemical substance/The level of expressed mRNA in the absence of chemical substance ([1]; yeast gene YNL250W): 1.0 | The level of expressed mRNA in the presence of chemical substance/The level of expressed mRNA in the absence of chemical substance ([1]; yeast gene YNL261W): 0.8 | The level of expressed mRNA in the presence of chemical substance/The level of expressed mRNA in the absence of chemical substance ([1]; yeast gene YNL312W): 1.2 | The level of expressed mRNA in the presence of chemical substance/The level of expressed mRNA in the absence of chemical substance ([1]; yeast gene YOL043C): 1.0 | The level of expressed mRNA in the presence of chemical substance/The level of expressed mRNA in the absence of chemical substance ([1]; yeast gene YOR005C): 1.1 | The level of expressed mRNA in the presence of chemical substance/The level of expressed mRNA in the absence of chemical substance ([1]; yeast gene YOR386W): 2.1 | The level of expressed mRNA in the presence of chemical substance/The level of expressed mRNA in the absence of chemical substance ([1]; yeast gene YPL022W): 0.9 | The level of expressed mRNA in the presence of chemical substance/The level of expressed mRNA in the absence of chemical substance ([1]; yeast gene YPL164C): 1.0 | The level of expressed mRNA in the presence of chemical substance/The level of expressed mRNA in the absence of chemical substance ([1]; yeast gene YPL194W): 1.0 | The level of expressed mRNA in the presence of chemical substance/The level of expressed mRNA in the absence of chemical substance ([1]; yeast gene YPR025C): 1.1 | The level of expressed mRNA in the presence of chemical substance/The level of expressed mRNA in the absence of chemical substance ([2]; yeast gene YBL064C): 1.2 | The level of expressed mRNA in the presence of chemical substance/The level of expressed mRNA in the absence of chemical substance ([2]; yeast gene YBR008C): 2.0 | The level of expressed mRNA in the presence of chemical substance/The level of expressed mRNA in the absence of chemical substance ([2]; yeast gene YBR145W): 1.7
